{"source": "the kinase profiling compilation of Christmann-Franck et al. (2016)", "assay_in_all_cases": "radiometric filter-binding kinase assay", "key": {"[1]": {"molecular_target": "IGF1R (human) (UniProt P08069)", "conditions": "ATP 5 µM"}, "[2]": {"molecular_target": "YES1 (human) (UniProt P07947)", "sequence (P07947 whole entry, looked up)": "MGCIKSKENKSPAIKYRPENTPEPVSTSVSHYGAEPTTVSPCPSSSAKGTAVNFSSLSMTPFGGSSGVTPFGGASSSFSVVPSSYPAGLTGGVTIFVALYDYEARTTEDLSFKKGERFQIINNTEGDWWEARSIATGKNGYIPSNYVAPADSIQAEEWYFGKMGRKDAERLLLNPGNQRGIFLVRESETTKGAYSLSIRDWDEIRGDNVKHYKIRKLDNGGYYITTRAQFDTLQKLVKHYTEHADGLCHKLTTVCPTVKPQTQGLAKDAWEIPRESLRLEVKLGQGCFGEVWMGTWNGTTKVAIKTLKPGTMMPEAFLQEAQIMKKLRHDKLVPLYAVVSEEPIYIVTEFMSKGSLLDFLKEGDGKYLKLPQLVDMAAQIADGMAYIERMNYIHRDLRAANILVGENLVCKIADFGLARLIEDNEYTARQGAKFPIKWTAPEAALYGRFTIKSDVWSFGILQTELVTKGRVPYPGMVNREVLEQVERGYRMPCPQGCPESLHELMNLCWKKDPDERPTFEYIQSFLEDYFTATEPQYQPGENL", "conditions": "ATP 20 µM"}, "[3]": {"molecular_target": "SRPK1 (human) (UniProt Q96SB4)", "sequence (Q96SB4 whole entry, looked up)": "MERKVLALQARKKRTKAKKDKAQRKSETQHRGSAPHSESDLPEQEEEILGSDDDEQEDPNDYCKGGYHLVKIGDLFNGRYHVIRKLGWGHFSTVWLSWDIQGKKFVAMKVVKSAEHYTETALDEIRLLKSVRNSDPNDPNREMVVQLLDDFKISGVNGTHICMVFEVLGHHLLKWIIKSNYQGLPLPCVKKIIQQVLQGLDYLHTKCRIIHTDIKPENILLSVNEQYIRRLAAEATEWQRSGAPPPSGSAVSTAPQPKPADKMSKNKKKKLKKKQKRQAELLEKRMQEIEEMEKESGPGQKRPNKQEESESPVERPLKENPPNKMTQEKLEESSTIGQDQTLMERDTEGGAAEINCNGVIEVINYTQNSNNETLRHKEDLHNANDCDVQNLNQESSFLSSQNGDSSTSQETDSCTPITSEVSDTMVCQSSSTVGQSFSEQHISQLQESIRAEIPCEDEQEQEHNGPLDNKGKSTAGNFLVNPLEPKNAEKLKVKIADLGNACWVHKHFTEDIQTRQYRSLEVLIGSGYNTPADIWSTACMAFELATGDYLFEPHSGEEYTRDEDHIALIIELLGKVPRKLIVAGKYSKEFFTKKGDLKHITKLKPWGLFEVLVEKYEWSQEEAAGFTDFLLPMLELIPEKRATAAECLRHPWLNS", "conditions": "ATP 50 µM"}, "[4]": {"molecular_target": "PRKCZ (human) (UniProt Q05513)", "conditions": "ATP 5 µM"}, "[5]": {"molecular_target": "IKBKE (human) (UniProt Q14164)", "conditions": "ATP 50 µM"}, "[6]": {"molecular_target": "DYRK3 (human) (UniProt O43781)", "sequence (O43781 whole entry, looked up)": "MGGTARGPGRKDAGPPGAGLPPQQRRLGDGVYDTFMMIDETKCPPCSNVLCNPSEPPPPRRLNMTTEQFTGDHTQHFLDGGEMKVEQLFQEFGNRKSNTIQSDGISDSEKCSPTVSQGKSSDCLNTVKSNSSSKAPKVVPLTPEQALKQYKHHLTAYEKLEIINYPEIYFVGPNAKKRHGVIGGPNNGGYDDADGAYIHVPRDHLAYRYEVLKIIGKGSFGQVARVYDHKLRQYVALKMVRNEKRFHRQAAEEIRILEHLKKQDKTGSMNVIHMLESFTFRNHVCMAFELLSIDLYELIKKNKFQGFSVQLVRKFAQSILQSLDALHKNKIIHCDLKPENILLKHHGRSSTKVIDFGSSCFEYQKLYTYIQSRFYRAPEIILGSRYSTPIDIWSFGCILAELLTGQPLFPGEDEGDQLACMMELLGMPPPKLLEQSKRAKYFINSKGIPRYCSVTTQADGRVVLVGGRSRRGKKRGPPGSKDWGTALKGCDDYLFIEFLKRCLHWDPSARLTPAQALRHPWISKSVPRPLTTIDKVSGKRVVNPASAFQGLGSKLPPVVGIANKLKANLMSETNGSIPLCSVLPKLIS", "conditions": "ATP 5 µM"}, "[7]": {"molecular_target": "NEK2 (human) (UniProt P51955)", "sequence (P51955 whole entry, looked up)": "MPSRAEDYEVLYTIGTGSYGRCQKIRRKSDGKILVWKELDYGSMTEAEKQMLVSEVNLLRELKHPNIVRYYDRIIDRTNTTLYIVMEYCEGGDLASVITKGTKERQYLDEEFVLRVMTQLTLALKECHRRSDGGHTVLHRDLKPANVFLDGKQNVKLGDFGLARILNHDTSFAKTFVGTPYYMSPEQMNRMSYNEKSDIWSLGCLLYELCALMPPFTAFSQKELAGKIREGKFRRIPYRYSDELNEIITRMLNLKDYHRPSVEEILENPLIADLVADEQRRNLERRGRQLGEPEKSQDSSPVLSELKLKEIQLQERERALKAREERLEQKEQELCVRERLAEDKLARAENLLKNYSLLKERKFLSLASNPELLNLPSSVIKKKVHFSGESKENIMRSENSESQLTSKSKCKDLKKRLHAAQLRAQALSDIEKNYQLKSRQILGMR", "conditions": "ATP 50 µM"}, "[8]": {"molecular_target": "PAK6 (human) (UniProt Q9NQU5)", "conditions": "ATP 20 µM"}, "[9]": {"molecular_target": "CaMK1 (human) (UniProt Q14012)", "conditions": "ATP 50 µM"}, "[10]": {"molecular_target": "MELK (human) (UniProt Q14680)", "conditions": "ATP 50 µM"}, "[11]": {"molecular_target": "PRKAA1 PRKAB2 PRKAG1 (human) (UniProt O43741+Q13131+P54619)", "conditions": "ATP 50 µM"}, "[12]": {"molecular_target": "PI4KB (human) (UniProt Q9UBF8)"}, "[13]": {"molecular_target": "CHEK2 (human) (UniProt O96017)", "conditions": "ATP 20 µM"}, "[14]": {"molecular_target": "IKBKB (human) (UniProt O14920)", "conditions": "ATP 5 µM"}, "[15]": {"molecular_target": "MAPK12 (human) (UniProt P53778)", "sequence (P53778 whole entry, looked up)": "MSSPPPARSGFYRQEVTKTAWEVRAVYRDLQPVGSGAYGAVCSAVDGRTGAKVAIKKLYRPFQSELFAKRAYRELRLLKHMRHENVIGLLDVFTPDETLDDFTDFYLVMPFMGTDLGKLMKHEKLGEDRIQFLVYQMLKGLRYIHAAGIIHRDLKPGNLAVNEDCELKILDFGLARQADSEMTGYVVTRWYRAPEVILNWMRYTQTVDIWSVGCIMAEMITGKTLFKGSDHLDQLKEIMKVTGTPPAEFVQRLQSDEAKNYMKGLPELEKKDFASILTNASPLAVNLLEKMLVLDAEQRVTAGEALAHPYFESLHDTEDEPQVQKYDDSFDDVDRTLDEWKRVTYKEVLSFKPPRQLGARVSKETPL", "conditions": "ATP 5 µM"}, "[16]": {"molecular_target": "PIM3 (human) (UniProt Q86V86)", "conditions": "ATP 20 µM"}, "[17]": {"molecular_target": "PDPK1 (human) (UniProt O15530)", "sequence (O15530 whole entry, looked up)": "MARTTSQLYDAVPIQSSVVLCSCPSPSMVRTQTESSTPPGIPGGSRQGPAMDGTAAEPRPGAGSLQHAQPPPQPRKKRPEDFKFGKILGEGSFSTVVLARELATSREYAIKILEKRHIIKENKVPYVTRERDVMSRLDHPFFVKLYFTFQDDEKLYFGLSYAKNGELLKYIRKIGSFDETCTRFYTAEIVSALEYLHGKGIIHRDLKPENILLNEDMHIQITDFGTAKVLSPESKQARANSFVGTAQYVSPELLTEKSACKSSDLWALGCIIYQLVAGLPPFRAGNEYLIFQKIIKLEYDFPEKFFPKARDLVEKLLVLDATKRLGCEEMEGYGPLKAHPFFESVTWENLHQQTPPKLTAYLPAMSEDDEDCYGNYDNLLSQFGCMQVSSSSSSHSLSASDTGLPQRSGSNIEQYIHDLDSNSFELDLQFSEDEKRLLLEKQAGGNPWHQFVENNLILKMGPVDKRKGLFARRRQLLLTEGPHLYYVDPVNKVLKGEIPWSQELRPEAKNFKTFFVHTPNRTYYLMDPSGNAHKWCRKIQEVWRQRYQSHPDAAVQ"}, "[18]": {"test_system": "RPS6KB1 (human), P23443 [T412E]", "conditions": "ATP 100 µM"}, "[19]": {"test_system": "AKT2 (human), P31751 [S474D]", "conditions": "ATP 50 µM"}, "[20]": {"molecular_target": "FGFR1 (human) (UniProt P11362)", "conditions": "ATP 20 µM"}, "[21]": {"molecular_target": "RPS6KA1 KD1 KD2 (human) (UniProt Q15418)", "conditions": "ATP 100 µM"}, "[22]": {"molecular_target": "MAP2K1 (human) (UniProt Q02750)", "sequence (Q02750 whole entry, looked up)": "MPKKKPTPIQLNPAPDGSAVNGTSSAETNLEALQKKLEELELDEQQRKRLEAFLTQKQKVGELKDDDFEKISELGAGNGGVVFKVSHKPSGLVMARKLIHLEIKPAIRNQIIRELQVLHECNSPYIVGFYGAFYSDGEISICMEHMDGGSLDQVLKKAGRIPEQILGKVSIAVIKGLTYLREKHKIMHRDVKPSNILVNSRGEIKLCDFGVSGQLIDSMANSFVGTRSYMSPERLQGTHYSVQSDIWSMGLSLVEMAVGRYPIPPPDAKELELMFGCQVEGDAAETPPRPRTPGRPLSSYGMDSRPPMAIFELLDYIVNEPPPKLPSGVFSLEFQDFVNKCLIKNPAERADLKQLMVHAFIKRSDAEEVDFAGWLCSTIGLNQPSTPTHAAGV", "conditions": "ATP 5 µM"}, "[23]": {"molecular_target": "MAPK14 (human) (UniProt Q16539)", "sequence (Q16539 whole entry, looked up)": "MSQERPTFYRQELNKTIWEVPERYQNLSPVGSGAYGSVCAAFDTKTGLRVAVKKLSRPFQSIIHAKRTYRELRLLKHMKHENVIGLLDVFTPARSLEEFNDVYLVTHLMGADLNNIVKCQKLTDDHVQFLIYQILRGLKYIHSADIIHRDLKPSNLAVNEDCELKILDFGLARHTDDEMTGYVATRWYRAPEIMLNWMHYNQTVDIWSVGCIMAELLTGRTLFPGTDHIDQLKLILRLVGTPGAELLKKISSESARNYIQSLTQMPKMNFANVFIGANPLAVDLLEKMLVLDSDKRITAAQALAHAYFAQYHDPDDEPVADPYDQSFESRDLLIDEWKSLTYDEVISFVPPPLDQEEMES", "conditions": "ATP 50 µM"}, "[24]": {"test_system": "ROCK2 (rat)", "conditions": "ATP 20 µM, accession and sequence are those of the human protein"}, "[25]": {"molecular_target": "PRKCA (human) (UniProt P17252)", "conditions": "ATP 20 µM"}, "[26]": {"molecular_target": "MKNK1 (human) (UniProt Q9BUB5)", "conditions": "ATP 50 µM"}, "[27]": {"molecular_target": "EPHA2 (human) (UniProt P29317)", "conditions": "ATP 50 µM"}, "[28]": {"molecular_target": "EEF2K (human) (UniProt O00418)", "sequence (O00418 whole entry, looked up)": "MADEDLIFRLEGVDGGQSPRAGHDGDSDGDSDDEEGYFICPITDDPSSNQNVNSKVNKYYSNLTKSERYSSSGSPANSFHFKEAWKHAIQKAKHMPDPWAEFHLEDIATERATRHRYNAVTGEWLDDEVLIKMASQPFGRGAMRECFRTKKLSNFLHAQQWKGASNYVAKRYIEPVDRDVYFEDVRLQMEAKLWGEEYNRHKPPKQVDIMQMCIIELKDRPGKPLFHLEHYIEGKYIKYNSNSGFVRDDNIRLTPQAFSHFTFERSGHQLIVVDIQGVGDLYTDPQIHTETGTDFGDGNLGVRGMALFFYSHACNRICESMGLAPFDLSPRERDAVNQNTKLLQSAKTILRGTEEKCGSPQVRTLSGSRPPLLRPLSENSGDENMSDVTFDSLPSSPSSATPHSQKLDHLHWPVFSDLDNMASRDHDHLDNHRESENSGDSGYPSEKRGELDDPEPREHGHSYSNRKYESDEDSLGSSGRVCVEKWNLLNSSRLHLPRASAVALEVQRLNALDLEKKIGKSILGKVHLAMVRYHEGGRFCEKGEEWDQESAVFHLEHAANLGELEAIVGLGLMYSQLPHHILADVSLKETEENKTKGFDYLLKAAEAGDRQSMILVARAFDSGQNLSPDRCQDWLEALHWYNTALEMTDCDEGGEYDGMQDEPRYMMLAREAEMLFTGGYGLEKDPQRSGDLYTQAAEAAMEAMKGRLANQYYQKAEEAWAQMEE", "conditions": "ATP 5 µM"}}}
{"smiles": "CCc1cncnc1N1CCN(Cc2nc3cc(C(F)(F)F)ccc3[nH]2)CC1", "values": [{"measurement": "residual activity", "setting": "[1]; compound 0.1 µM", "value": 72, "unit": "%"}, {"measurement": "residual activity", "setting": "[1]; compound 1.0 µM", "value": 95, "unit": "%"}, {"measurement": "residual activity", "setting": "[1]; compound 10.0 µM", "value": 82, "unit": "%"}, {"measurement": "residual activity", "setting": "[2]; compound 0.1 µM", "value": 98, "unit": "%"}, {"measurement": "residual activity", "setting": "[2]; compound 1.0 µM", "value": 84, "unit": "%"}, {"measurement": "residual activity", "setting": "[2]; compound 10.0 µM", "value": 76, "unit": "%"}, {"measurement": "residual activity", "setting": "[3]; compound 0.1 µM", "value": 108, "unit": "%"}, {"measurement": "residual activity", "setting": "[3]; compound 1.0 µM", "value": 106, "unit": "%"}, {"measurement": "residual activity", "setting": "[3]; compound 10.0 µM", "value": 101, "unit": "%"}, {"measurement": "residual activity", "setting": "[4]; compound 0.1 µM", "value": 78, "unit": "%"}, {"measurement": "residual activity", "setting": "[4]; compound 1.0 µM", "value": 75, "unit": "%"}, {"measurement": "residual activity", "setting": "[4]; compound 10.0 µM", "value": 70, "unit": "%"}, {"measurement": "residual activity", "setting": "[5]; compound 0.1 µM", "value": 103, "unit": "%"}, {"measurement": "residual activity", "setting": "[5]; compound 1.0 µM", "value": 99, "unit": "%"}, {"measurement": "residual activity", "setting": "[5]; compound 10.0 µM", "value": 96, "unit": "%"}, {"measurement": "residual activity", "setting": "[6]; compound 0.1 µM", "value": 106, "unit": "%"}, {"measurement": "residual activity", "setting": "[6]; compound 1.0 µM", "value": 92, "unit": "%"}, {"measurement": "residual activity", "setting": "[6]; compound 10.0 µM", "value": 83, "unit": "%"}, {"measurement": "residual activity", "setting": "[7]; compound 0.1 µM", "value": 95, "unit": "%"}, {"measurement": "residual activity", "setting": "[7]; compound 1.0 µM", "value": 94, "unit": "%"}, {"measurement": "residual activity", "setting": "[7]; compound 10.0 µM", "value": 91, "unit": "%"}, {"measurement": "residual activity", "setting": "[8]; compound 0.1 µM", "value": 99, "unit": "%"}, {"measurement": "residual activity", "setting": "[8]; compound 1.0 µM", "value": 83, "unit": "%"}, {"measurement": "residual activity", "setting": "[8]; compound 10.0 µM", "value": 86, "unit": "%"}, {"measurement": "residual activity", "setting": "[9]; compound 0.1 µM", "value": 106, "unit": "%"}, {"measurement": "residual activity", "setting": "[9]; compound 1.0 µM", "value": 94, "unit": "%"}, {"measurement": "residual activity", "setting": "[9]; compound 10.0 µM", "value": 78, "unit": "%"}, {"measurement": "residual activity", "setting": "[10]; compound 0.1 µM", "value": 94, "unit": "%"}, {"measurement": "residual activity", "setting": "[10]; compound 1.0 µM", "value": 101, "unit": "%"}, {"measurement": "residual activity", "setting": "[10]; compound 10.0 µM", "value": 87, "unit": "%"}, {"measurement": "residual activity", "setting": "[11]; compound 0.1 µM", "value": 100, "unit": "%"}, {"measurement": "residual activity", "setting": "[11]; compound 1.0 µM", "value": 88, "unit": "%"}, {"measurement": "residual activity", "setting": "[11]; compound 10.0 µM", "value": 46, "unit": "%"}, {"measurement": "residual activity", "setting": "[12]; compound 1.0 µM", "value": 103, "unit": "%"}, {"measurement": "residual activity", "setting": "[12]; compound 10.0 µM", "value": 99, "unit": "%"}, {"measurement": "residual activity", "setting": "[13]; compound 0.1 µM", "value": 101, "unit": "%"}, {"measurement": "residual activity", "setting": "[13]; compound 1.0 µM", "value": 73, "unit": "%"}, {"measurement": "residual activity", "setting": "[13]; compound 10.0 µM", "value": 72, "unit": "%"}, {"measurement": "residual activity", "setting": "[14]; compound 0.1 µM", "value": 195, "unit": "%"}, {"measurement": "residual activity", "setting": "[14]; compound 1.0 µM", "value": 230, "unit": "%"}, {"measurement": "residual activity", "setting": "[14]; compound 10.0 µM", "value": 192, "unit": "%"}, {"measurement": "residual activity", "setting": "[15]; compound 0.1 µM", "value": 107, "unit": "%"}, {"measurement": "residual activity", "setting": "[15]; compound 1.0 µM", "value": 102, "unit": "%"}, {"measurement": "residual activity", "setting": "[15]; compound 10.0 µM", "value": 103, "unit": "%"}, {"measurement": "residual activity", "setting": "[16]; compound 0.1 µM", "value": 93, "unit": "%"}, {"measurement": "residual activity", "setting": "[16]; compound 1.0 µM", "value": 88, "unit": "%"}, {"measurement": "residual activity", "setting": "[16]; compound 10.0 µM", "value": 83, "unit": "%"}, {"measurement": "residual activity", "setting": "[17]; compound 0.1 µM, ATP 20 µM", "value": 90, "unit": "%"}, {"measurement": "residual activity", "setting": "[17]; compound 0.1 µM, ATP 50 µM", "value": 94, "unit": "%"}, {"measurement": "residual activity", "setting": "[17]; compound 1.0 µM, ATP 20 µM", "value": 86, "unit": "%"}, {"measurement": "residual activity", "setting": "[17]; compound 1.0 µM, ATP 50 µM", "value": 83, "unit": "%"}, {"measurement": "residual activity", "setting": "[17]; compound 10.0 µM, ATP 20 µM", "value": 95, "unit": "%"}, {"measurement": "residual activity", "setting": "[17]; compound 10.0 µM, ATP 50 µM", "value": 67, "unit": "%"}, {"measurement": "residual activity", "setting": "[18]; compound 0.1 µM", "value": 58, "unit": "%"}, {"measurement": "residual activity", "setting": "[18]; compound 1.0 µM", "value": 23, "unit": "%"}, {"measurement": "residual activity", "setting": "[18]; compound 10.0 µM", "value": 7, "unit": "%"}, {"measurement": "residual activity", "setting": "[19]; compound 0.1 µM", "value": 74, "unit": "%"}, {"measurement": "residual activity", "setting": "[19]; compound 1.0 µM", "value": 73, "unit": "%"}, {"measurement": "residual activity", "setting": "[19]; compound 10.0 µM", "value": 60, "unit": "%"}, {"measurement": "residual activity", "setting": "[20]; compound 0.1 µM", "value": 91, "unit": "%"}, {"measurement": "residual activity", "setting": "[20]; compound 1.0 µM", "value": 92, "unit": "%"}, {"measurement": "residual activity", "setting": "[20]; compound 10.0 µM", "value": 63, "unit": "%"}, {"measurement": "IC50", "setting": "[21]", "value": 4.7, "unit": "µM"}, {"measurement": "residual activity", "setting": "[21]; compound 0.1 µM", "value": 85, "unit": "%"}, {"measurement": "residual activity", "setting": "[21]; compound 1.0 µM", "value": 83, "unit": "%"}, {"measurement": "residual activity", "setting": "[21]; compound 10.0 µM", "value": 33, "unit": "%"}, {"measurement": "residual activity", "setting": "[22]; compound 0.1 µM", "value": 117, "unit": "%"}, {"measurement": "residual activity", "setting": "[22]; compound 1.0 µM", "value": 104, "unit": "%"}, {"measurement": "residual activity", "setting": "[22]; compound 10.0 µM", "value": 96, "unit": "%"}, {"measurement": "residual activity", "setting": "[23]; compound 0.1 µM", "value": 86, "unit": "%"}, {"measurement": "residual activity", "setting": "[23]; compound 1.0 µM", "value": 79, "unit": "%"}, {"measurement": "residual activity", "setting": "[23]; compound 10.0 µM", "value": 86, "unit": "%"}, {"measurement": "residual activity", "setting": "[24]; compound 0.1 µM", "value": 98, "unit": "%"}, {"measurement": "residual activity", "setting": "[24]; compound 1.0 µM", "value": 91, "unit": "%"}, {"measurement": "residual activity", "setting": "[24]; compound 10.0 µM", "value": 58, "unit": "%"}, {"measurement": "residual activity", "setting": "[25]; compound 0.1 µM", "value": 119, "unit": "%"}, {"measurement": "residual activity", "setting": "[25]; compound 1.0 µM", "value": 106, "unit": "%"}, {"measurement": "residual activity", "setting": "[25]; compound 10.0 µM", "value": 62, "unit": "%"}, {"measurement": "residual activity", "setting": "[26]; compound 0.1 µM", "value": 101, "unit": "%"}, {"measurement": "residual activity", "setting": "[26]; compound 1.0 µM", "value": 91, "unit": "%"}, {"measurement": "residual activity", "setting": "[26]; compound 10.0 µM", "value": 79, "unit": "%"}, {"measurement": "residual activity", "setting": "[27]; compound 0.1 µM", "value": 95, "unit": "%"}, {"measurement": "residual activity", "setting": "[27]; compound 1.0 µM", "value": 86, "unit": "%"}, {"measurement": "residual activity", "setting": "[27]; compound 10.0 µM", "value": 89, "unit": "%"}, {"measurement": "residual activity", "setting": "[28]; compound 0.1 µM", "value": 90, "unit": "%"}, {"measurement": "residual activity", "setting": "[28]; compound 1.0 µM", "value": 73, "unit": "%"}, {"measurement": "residual activity", "setting": "[28]; compound 10.0 µM", "value": 78, "unit": "%"}]}
